The structures appear in SMILES notation.

One data set relates to Maus. The following applies: p.o., acute toxicity; cited from earlier work.
The next data set has as its system cardialen β-Rezeptoren. Nature of the data set: LV-dP/dtmax (cardiac contractility) response to isoprenaline in anaesthetised, despinalised rats before and after PAF infusion. Format: in vivo, Ratten. The arrangement: Steigerung von LV-dP/dtmax durch Isoprenalin (Ansprechbarkeit der cardialen β-Rezeptoren): dose or concentration left out as unconfirmed. The note with it: for Steigerung LV-dP/dtmax: despinalised rats, n=6, control before PAF. As to the method: Die neu aufgefundene Wirkung der PAF-Antagonisten wurde beispielsweise an B = 4-(2-Chlorphenyl)-9-methyl-2-[3-(4-morpholinyl)-3-propanon-1-yl]-6H-thieno[3.2-f][1.2.4]triazolo[4.3-a][1.4]-diazepin wie folgt geprüft: Männliche Ratten (Chbb:THOM, ca. 300 g) werden mit Hexobarbital-Natrium (150 mg/kg i.p.) narkotisiert. Die Trachea wird kannuliert und danach werden die Tiere despinalisiert. Die Tiere werden künstlich beatmet und mittels einem Heizkissen auf 37°C gehalten. Zur Messung des linksventrikulärem Drucks wird über die Arteria Carotis in den linken Ventrikel ein Millar Tipmanometer geschoben. Dieses Signal wird elektronisch differentiert und ist als LV-dP/dtmax ein Maß für die Kontraktionskraft des Herzes. Über einen Katheter in der anderen Arteria Carotis wird der arterielle Blutdruck gemessen. Die zu untersuchenden Substanzen werden intravenös über eine Kanüle in der Vena jugularis injiziert.
Isoprenalin (3-100 ng/kg) steigert dosisabhänig LV-dP/dtmax von 300 ± 90 bis 4450 ± 290 mm Hg/s (n=6). Nach einer 45-minütigen Infusion von PAF (50-100 ng/kg/min.) wurde wieder Isoprenalin (3 bis 100 ng/kg) injiziert. […] Dann wurde die Substanz B (10 mg/kg i.v.) verabreicht und nach 10 Minuten wurde wieder Isoprenalin injiziert.

For the molecule `Cc1nnc2n1-c1sc3c(c1C(c1ccccc1Cl)=NC2)CC(C(=O)N1CCOCC1)C3` (single isomer, unassigned; (-)) [Substanz A, (-)-6-(2-Chlorphenyl)-8,9-dihydro-1-methyl-8-[(4-morpholinyl)carbonyl]-4H,7H-cyclopenta[4.5]thieno[3,2-f][1.2.4]triazolo[4.3-a][1.4]diazepin], the LD₅₀ in the data set with Maus is listed as 1960 mg/kg.

Take `CC(C)NCC(O)c1ccc(O)c(O)c1` (stereo not drawn) [Isoprenalin]: the “Steigerung LV-dP/dtmax” value in the data set on cardialen β-Rezeptoren (Isoprenalin 3 ng/kg i.v. (lower end of dose range 3-100 ng/kg)) is recorded as 300 ± 90 mm Hg/s; in the data set with cardialen β-Rezeptoren (Isoprenalin 100 ng/kg i.v. (upper end of dose range 3-100 ng/kg)) it was 4450 ± 290 mm Hg/s.

For `CCCCCCCCCCCCCCCCOCC(COP(=O)([O-])OCC[N+](C)(C)C)OC(C)=O` (stereo not drawn) [PAF], the “Effekte von 3 und 10 ng/kg Isoprenalin (LV-dP/dtmax)” value with cardialen β-Rezeptoren (after 45 min infusion of PAF 50-100 ng/kg/min, rats) is listed as “nicht beeinflußt”. The “positiv inotrope Wirkung von dem Histamin-2 Agonist Dimaprit” value with cardialen β-Rezeptoren (effect of PAF on Dimaprit 1-10 mg/kg) is on record as “absolut nicht beeinflußt”. Further, in the data set with cardialen β-Rezeptoren (effect of PAF on Forskolin 3-20 µg/kg), the “positiv inotrope Wirkung von dem Adenylcyclase Aktivator Forskolin” value is reported as “absolut nicht beeinflußt”.

On to `Cc1nnc2n1-c1sc(CCC(=O)N3CCOCC3)cc1C(c1ccccc1Cl)=NC2` [Substanz B, 4-(2-Chlorphenyl)-9-methyl-2-[3-(4-morpholinyl)-3-propanon-1-yl]-6H-thieno[3.2-f][1.2.4]triazolo[4.3-a][1.4]diazepin], for which the “Steigerung von LV-dP/dtmax durch Isoprenalin (Ansprechbarkeit der cardialen β-Rezeptoren)” value in the data set on cardialen β-Rezeptoren (isoprenaline injected again after 10 min, responsiveness fully restored, rats) is “nicht signifikant unterschiedlich von den Kontrollwerten”. The LD₅₀ in the data set with Maus is 4600 mg/kg.

`CCCN(CCC)C(=O)C1Cc2sc3c(c2C1)C(c1ccccc1Cl)=NCc1nnc(C)n1-3` (stereo not drawn) [Substanz C]: the LD₅₀ in the data set with Maus is given as 1700 mg/kg.

Source of the values: patent EP0416604A2, “PAF-antagonists for the preparation of a medicament, useful for the treatment of heart diseases, caused by diminished beta-receptor-stimulation” (Dr. Karl Thomae GmbH, priority 1989, dated 1991).
